We go through 12 molecules from ChEMBL document CHEMBL1133359, “New fluorogenic substrate for the first continuous steroid sulfatase assay” (Bioorg Med Chem Lett, 2000).

As usually defined, the Km is the concentration of substrate that gives half-maximal velocity.

Series [1] addresses T1, Steryl-sulfatase (Homo sapiens) (UniProt P08842).
T1 sequence (whole entry): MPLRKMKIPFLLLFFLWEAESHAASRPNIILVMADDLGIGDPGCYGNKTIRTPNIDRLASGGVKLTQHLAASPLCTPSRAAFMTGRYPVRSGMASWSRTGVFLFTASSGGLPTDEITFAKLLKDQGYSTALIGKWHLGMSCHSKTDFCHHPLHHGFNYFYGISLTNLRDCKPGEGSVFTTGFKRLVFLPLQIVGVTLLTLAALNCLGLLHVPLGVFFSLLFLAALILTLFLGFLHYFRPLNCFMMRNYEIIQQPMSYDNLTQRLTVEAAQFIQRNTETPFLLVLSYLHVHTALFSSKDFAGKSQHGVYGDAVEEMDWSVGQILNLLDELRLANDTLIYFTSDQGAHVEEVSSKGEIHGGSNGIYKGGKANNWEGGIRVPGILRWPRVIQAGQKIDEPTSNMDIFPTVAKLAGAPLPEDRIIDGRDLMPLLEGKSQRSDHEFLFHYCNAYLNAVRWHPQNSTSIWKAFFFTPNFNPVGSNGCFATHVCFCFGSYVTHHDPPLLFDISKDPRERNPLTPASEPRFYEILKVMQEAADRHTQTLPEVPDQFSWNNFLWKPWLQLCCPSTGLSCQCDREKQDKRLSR
Description: Inhibitory potency against recombinant human steroid sulfatase relative to compound 3 = 1.

Series [2] addresses T1, Steryl-sulfatase (Homo sapiens).
Series [3] has the same target. Description: kcat value was determined.
Compound in series [4]: C[C@]12CC[C@@H]3c4ccc(OS(N)(=O)=O)cc4CC[C@H]3[C@@H]1CCC2=O
Description: (§1) Tested for inhibitory potency against recombinant human steroid sulfatase.

Compound in series [5]: Cc1cc(=O)oc2cc(OS(N)(=O)=O)ccc12
The description is as §1.

Compound in series [6]: O=c1oc2cc(OS(=O)(=O)O)ccc2c2ccccc12
The series is described as §1.

`NS(=O)(=O)Oc1ccc2c(c1)oc(=O)c1c3ccc(O)cc3oc21`: the rIC50 in series [1] turned out to be 3.5. Turning to `Cc1cc(=O)oc2cc(OS(N)(=O)=O)ccc12`, the rIC50 in series [1] was determined as 30.

Consider `Cc1c(-c2ccccc2)c(=O)oc2ccc(OS(N)(=O)=O)cc12`, for which the rIC50 in series [1] was above 250. On to `NS(=O)(=O)Oc1ccc2c(c1)oc1c3ccccc3oc(=O)c21`, for which the rIC50 in series [1] was above 160. `NS(=O)(=O)Oc1ccc2cc(-c3nc4ccccc4s3)c(=O)oc2c1`: the rIC50 in series [1] was above 250. The same measure, in the same setting: next, `NS(=O)(=O)Oc1ccc2c(c1)oc(=O)c1ccccc12`: 3.

For `Cc1c(-c2ccccc2)c(=O)oc2cc(OS(N)(=O)=O)ccc12`, the rIC50 in series [1] was found to be 11. In the case of `C[C@]12CC[C@@H]3c4ccc(OS(N)(=O)=O)cc4CC[C@H]3[C@@H]1CCC2=O`, the rIC50 in series [2] was found to be 1. Turning to `NS(=O)(=O)Oc1ccc2cc(-c3ccccc3)c(=O)oc2c1`, in series [1], the rIC50 is 48.

As for `NS(=O)(=O)Oc1ccc2c(c1)oc(=O)c1c3ccccc3oc21`, the rIC50 in series [1] turned out to be 5. Regarding `O=c1oc2cc(OS(=O)(=O)O)ccc2c2ccccc12`, the k cat in series [3] turned out to be 0.24 s⁻¹.

B1: Steryl-sulfatase (Homo sapiens), P08842 (protein)
chain: T1 sequence (whole entry)
B1: the Km in series [4] is 95 µM; in series [5] it was 275 µM; in series [6], 22.5 µM.
